This note sets out measurements from patent publication US12600696B2 (XENIOPRO GMBH, priority 2017, dated 2026).

The test system of this assay is Notch signaling (hNotch1ΔE, human Notch1 receptor) in HeLa cells. Briefly: Notch reporter assay (luciferase luminescence readout in transfected HeLa cells). It is filed as cell-based. As to conditions: Homo sapiens, 20 hours, relative to DMSO baseline level of 1.0, read-out: AVEw, weighted arithmetic mean of double-normalized Notch-reporter luciferase luminescence values (Activity Range). An outline of the steps:
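HeLa cells were transiently transfected for 24 h with membrane-tethered constitutively active hNotch1ΔE, a CSL-promoter Firefly luciferase reporter and constitutive SV40-Renilla luciferase. Compounds were then applied at 10 μM (0.1% DMSO) for 20 h. Firefly/Renilla dual-luciferase ratios were normalized to DMSO control (baseline 1.0), outliers were excluded, and replicate values were averaged across ≥3 independent experiments.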
Regarding `NC(=O)c1ccc(Oc2ccc(C3CC4CCC3C4)cc2)cc1` (racemic) [Compound 159, (±)-4-(4-(Bicyclo[2.2.1]heptan-2-yl)phenoxy)benzamide], the fold induction at 10 µM fell in the range of 1.1 to 1.2. With `CCCc1ccc(Oc2ccc(C(=O)NO)cc2)cc1` [Compound 166, N-hydroxy-4-(4-propylphenoxy)benzamide], the fold induction at 10 µM lay within 1.2 to 1.3. To `CCC(C)(C)c1ccc(Oc2ccc(C(=O)NO)cc2)cc1` [Compound 171, N-hydroxy-4-(4-(tert-pentyl)phenoxy)benzamide] belongs 1.1 to 1.2; to `O=C(NO)c1ccc(Oc2ccc(C3CCCCC3)cc2)cc1` [Compound 182, 4-(4-cyclohexylphenoxy)-N-hydroxybenzamide], 1.3 to 1.4; to `O=C(NO)c1ccc(Oc2ccc(C34CC5CC(CC(C5)C3)C4)cc2)cc1` [Compound 186, 4-(4-(Adamantan-1-yl)phenoxy)-N-hydroxybenzamide], at least 2. To `CC(C)c1ccc(Oc2ccc(C(=O)NO)cn2)cc1` [Compound 272, N-hydroxy-6-(4-isopropylphenoxy)nicotinamide] belongs 1.7 to 2; to `CCC(C)(C)c1ccc(Oc2ccc(C(=O)NO)cn2)cc1` [Compound 273, N-hydroxy-6-(4-(tert-pentyl)phenoxy)nicotinamide], 1.2 to 1.3. Consider `O=C(NO)c1ccc(Oc2ccc(C3CCCCC3)cc2)nc1` [Compound 284, 6-(4-Cyclohexylphenoxy)-N-hydroxynicotinamide], for which the fold induction at 10 µM fell in the range of 1.7 to 2.

As to `O=C(NO)c1ccc(Oc2ccc(C3CC4CCC3CC4)cc2)nc1` (stereo not drawn) [Compound 287, 6-(4-((1s,4s)-bicyclo[2.2.2]octan-2-yl)phenoxy)-N-hydroxynicotinamide], the fold induction at 10 µM lay within 1.1 to 1.2. The figure for `O=C(NO)c1ccc(Oc2ccc(C34CC5CC(CC(C5)C3)C4)cc2)nc1` [Compound 288, 6-(4-((3r,5r,7r)-adamantan-1-yl)phenoxy)-N-hydroxynicotinamide] is 1.7 to 2. To `CNC(=O)c1ccc(Oc2ccc(C(F)(F)F)cc2)nc1` [Compound 300, N-methyl-6-(4-(trifluoromethyl)phenoxy)nicotinamide] belongs 1.1 to 1.2; to `CN(C)C(=O)c1ccc(Oc2ccc(C3CCCCC3)cc2)nc1` [Compound 334, 6-(4-cyclohexylphenoxy)-N,N-dimethylnicotinamide], 1.3 to 1.4. To `O=C(NO)c1ccc(Oc2ccc(C34CC5CC(CC(C5)C3)C4)cc2)c(F)c1` [Compound 544, 4-(4-(Adamantan-1-yl)phenoxy)-3-fluoro-N-hydroxybenzamide] belongs 1.4 to 1.7. As to `O=C(NO)c1cnc(Oc2ccc(C3CCCCC3)cc2)c(F)c1` [Compound 644, 6-(4-Cyclohexylphenoxy)-5-fluoro-N-hydroxynicotinamide], the fold induction at 10 µM is 1.1 to 1.2. On to `Oc1ccc(C=Cc2cc(O)cc(O)c2)cc1` [RES, resveratrol, reference compound], for which the fold induction at 10 µM stood at 1.5.
